Source: BigSolDB 2.1

NC(=O)c1cnccn1
solubility (mole fraction)
Conditions | 283.15 K | 293.15 K | 303.15 K | 313.15 K | 323.15 K | 333.15 K
in 1,4-dioxane | – | 0.0072 | 0.0107 | 0.0138 | 0.0202 | 0.0285
in acetone | 0.00244 | 0.00386 | 0.00583 | 0.00768 | 0.0116 | –
in methanol | 0.00268 | 0.00398 | 0.00586 | 0.0086 | 0.0122 | –
